Patent publication US20150105252A1, “SUBSTITUTED PYRAZOLES AS HERBICIDES” (E I DU PONT DE NEMOURS AND COMPANY, priority 2013, published 2015)

Key:
bermudagrass = assay: Test C postemergence; assay type: in vivo, Cynodon dactylon; conditions: for Plant response rating, Bermudagrass: postemergence
Excerpt: (§1) Seeds of plant species selected from blackgrass (Alopecurus myosuroides), ryegrass, Italian (Italian ryegrass, Lolium multiflorum), wheat (winter wheat, Triticum aestivum), galium (catchweed bedstraw, Galium aparine), corn (Zea mays), crabgrass, large (large crabgrass, Digitaria sanguinalis), foxtail, giant (giant foxtail, Setaria faberii), johnsongrass (Sorghum halepense), lambsquarters (Chenopodium album), morningglory (Ipomoea coccinea), nutsedge, yellow (yellow nutsedge, Cyperus esculentus), pigweed (redroot pigweed, Amaranthus retroflexus), ragweed (common ragweed, Ambrosia elation), soybean (Glycine max), barnyardgrass (Echinochloa crus-galli), oilseed rape (Brassica napus), waterhemp (common waterhemp, Amaranthus rudis), oat, wild (wild oat, Avena fatua), kochia (Kochia scoparia), Surinam grass (Brachiaria decumbens), foxtail, green (green foxtail, Setaria viridis), goosegrass (Eleusine indica), bromegrass, downy (downy bromegrass, Bromus tectorum), nightshade (eastern black nightshade, Solanum ptycanthum), cocklebur (common cocklebur, Xanthium strumarium), cupgrass, woolly (woolly cupgrass, Eriochloa villosa), bermudagrass (Cynodon dactylon), sunflower, (common oilseed sunflower, Helianthus annuus), Russian thistle (Salsola kali), and velvetleaf (Abutilon theophrasti) were planted into a blend of loam soil and sand and treated preemergence with test chemicals formulated in a non-phytotoxic solvent mixture which included a surfactant.
(§2) At the same time, plants selected from these crop and weed species and also chickweed (common chickweed, Stellaria media), canarygrass (littleseed canarygrass, Phalaris minor), and deadnettle (henbit deadnettle, Lamium amplexicaule), were planted in pots containing Redi-Earth® planting medium (Scotts Company, 14111 Scottslawn Road, Marysville, Ohio 43041) comprising spaghnum peat moss, vermiculite, wetting agent and starter nutrients and treated with postemergence applications of test chemicals formulated in the same manner. Plants ranged in height from 2 to 18 cm (1- to 4-leaf stage) for postemergence treatments. Treated plants and controls were maintained in a greenhouse for 13 to 15 days, after which time all species were compared to controls and visually evaluated. Plant response ratings, summarized in Table C, are based on a scale of 0 to 100 where 0 is no effect and 100 is complete control. A dash (-) response means no test result.

bromegrass, downy = assay: Test C postemergence; assay type: in vivo, Bromus tectorum; conditions: for Plant response rating, Bromegrass, Downy: postemergence
Excerpt: as §1, §2

barley = assay: Test C postemergence; assay type: in vivo, Hordeum vulgare; conditions: scale 0 to 100, 0 no effect, 100 complete control
canarygrass = assay: Test C postemergence; assay type: in vivo, Phalaris minor; conditions: for Plant response rating, Canarygrass: postemergence
Excerpt: as §1, §2

cupgrass, woolly = assay: Test C preemergence; assay type: in vivo, Eriochloa villosa
Excerpt: as §1, §2

[1] = Postemergence, 31 g ai/ha, scale 0 to 100
[2] = 250 g ai/ha, scale 0 to 100 (0 no effect, 100 complete control)
[3] = 62 g ai/ha, scale 0 to 100, 0 no effect, 100 complete control
[4] = 125 g ai/ha, scale 0 to 100, 0 no effect, 100 complete control

What does the source list for CCc1cc(C(=O)NOC(C)C)nn1Cc1cccc(OC(F)(F)F)c1 [Compound 70]?
Bermudagrass plant response rating (bermudagrass; [1]): 5; Plant response rating, Bermudagrass (bermudagrass; [2]): 10; Plant response rating, Bermudagrass (bermudagrass; [3]): 5; Plant response rating, Bermudagrass (bermudagrass; [4]): 10; Bromegrass, Downy plant response rating (bromegrass, downy; [1]): 0; Plant response rating, Bromegrass, Downy (bromegrass, downy; [2]): 5; Plant response rating, Bromegrass, Downy (bromegrass, downy; [3]): 0; Plant response rating, Bromegrass, Downy (bromegrass, downy; [4]): 5; Plant response rating, Barley (barley; 62 g ai/ha): 5; Plant response rating, Barley (barley; 125 g ai/ha): 10; Canarygrass plant response rating (canarygrass; [1]): 0; Plant response rating, Canarygrass (canarygrass; [2]): 60; Plant response rating, Canarygrass (canarygrass; [3]): 5; Plant response rating, Canarygrass (canarygrass; [4]): 15; Plant response rating (scale of 0 to 100), Cupgrass, Woolly (cupgrass, woolly; Preemergence, 250 g ai/ha): 90; Cupgrass, Woolly plant response rating (cupgrass, woolly; preemergence, 31 g ai/ha, scale 0 to 100 (0 no effect, 100 complete control), 13 to 15 days): 40; Plant response rating, Cupgrass, Woolly (cupgrass, woolly; preemergence, 62 g ai/ha, 13 to 15 days, scale 0 to 100, 0 = no effect, 100 = complete control): 65; Cupgrass, Woolly plant response rating (cupgrass, woolly; preemergence, 125 g ai/ha, scale 0 to 100, 0 is no effect, 100 is complete control): 85
